Data taken from patent publication US8791132B2, “Compounds and methods for treatment of hypertension” (Medivation Technologies, Inc., priority 2011, dated 2014).
Several values for one entry are separate records, joined by “and”; a condition that tells them apart may be missing. Identical values can stand only once. Like-named read-outs stand apart in the source and are kept apart here.

Legend:
[1] = biological target: T1, human recombinant adrenergic α2A receptor (Homo sapiens, UniProt P08913); test: Radioligand binding, adrenergic α2A ([3H]MK-912); settings: for Percentage inhibition of ligand binding, Adrenergic α2A / Percentage inhibition of ligand binding, Adrenergic α2A (0.1 μM): 0.1 µM
T1 construct: expressed in transfected cells; host or cells: insect Sf9 cells
T1 sequence (P08913 1-465): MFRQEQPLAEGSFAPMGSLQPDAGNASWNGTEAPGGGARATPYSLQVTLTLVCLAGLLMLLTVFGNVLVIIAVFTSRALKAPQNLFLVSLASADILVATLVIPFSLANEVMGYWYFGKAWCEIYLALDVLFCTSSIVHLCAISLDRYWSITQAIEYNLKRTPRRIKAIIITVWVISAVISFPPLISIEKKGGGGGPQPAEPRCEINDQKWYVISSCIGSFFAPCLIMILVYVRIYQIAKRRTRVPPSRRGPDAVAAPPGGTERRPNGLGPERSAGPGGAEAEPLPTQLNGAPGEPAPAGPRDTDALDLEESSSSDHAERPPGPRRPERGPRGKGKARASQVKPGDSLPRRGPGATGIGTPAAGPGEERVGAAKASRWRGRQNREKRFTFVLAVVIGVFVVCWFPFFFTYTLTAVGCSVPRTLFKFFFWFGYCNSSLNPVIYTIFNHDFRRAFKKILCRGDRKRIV
Procedure, shortened: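 Receptor expressed in Sf9 cells, in 50 mM Tris-HCl pH 7.4, 12.5 mM MgCl2, 2 mM EDTA; compounds incubated with 1 nM [3H]MK-912 for 60 min at 25 °C.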

[2] = biological target: T2, rat adrenergic α1B receptor (Rattus norvegicus, UniProt P15823); test: Radioligand binding, adrenergic α1B ([3H]Prazosin); settings: for Percentage inhibition of ligand binding, Adrenergic α1B / Percentage inhibition of ligand binding, Adrenergic α1B (0.1 μM): 0.1 µM
T2 construct: rat adrenergic α1B receptor obtained from Wistar Rat liver; from tissue; host or cells: Wistar rat liver
T2 sequence (P15823 1-515): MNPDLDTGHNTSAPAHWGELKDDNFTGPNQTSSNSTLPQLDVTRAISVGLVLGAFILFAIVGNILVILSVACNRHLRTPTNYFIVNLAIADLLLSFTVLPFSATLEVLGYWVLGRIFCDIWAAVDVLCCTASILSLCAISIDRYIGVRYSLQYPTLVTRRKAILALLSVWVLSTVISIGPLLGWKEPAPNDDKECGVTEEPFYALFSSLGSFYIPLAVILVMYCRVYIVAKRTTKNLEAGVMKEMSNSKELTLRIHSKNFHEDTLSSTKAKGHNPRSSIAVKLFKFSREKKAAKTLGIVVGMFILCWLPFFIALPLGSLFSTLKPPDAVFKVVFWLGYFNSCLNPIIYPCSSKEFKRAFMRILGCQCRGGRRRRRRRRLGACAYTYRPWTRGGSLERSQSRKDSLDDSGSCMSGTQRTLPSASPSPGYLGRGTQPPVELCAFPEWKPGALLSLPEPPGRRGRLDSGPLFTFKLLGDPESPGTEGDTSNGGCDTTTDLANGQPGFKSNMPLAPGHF
Procedure, shortened: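 Rat α1B receptor from Wistar rat liver was incubated with 0.25 nM [3H]prazosin for 60 min at 25 °C in 50 mM Tris-HCl, pH 7.4, 0.5 mM EDTA. Non-specific binding was defined with 10 μM phentolamine. Bound radioligand was measured by filtration and counting, reported as percent inhibition of specific binding.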

[3] = biological target: T3, human recombinant adrenergic α2B receptor (Homo sapiens, UniProt P18089); test: Radioligand binding, adrenergic α2B ([3H]Rauwolscine); settings: for Percentage inhibition of ligand binding, Adrenergic α2B / Percentage inhibition of ligand binding, Adrenergic α2B (0.03 μM): 0.03 µM; for Ki: read-out: Ki α2B
T3 construct: expressed in transfected cells; host or cells: CHO-K1
T3 sequence (P18089 1-450): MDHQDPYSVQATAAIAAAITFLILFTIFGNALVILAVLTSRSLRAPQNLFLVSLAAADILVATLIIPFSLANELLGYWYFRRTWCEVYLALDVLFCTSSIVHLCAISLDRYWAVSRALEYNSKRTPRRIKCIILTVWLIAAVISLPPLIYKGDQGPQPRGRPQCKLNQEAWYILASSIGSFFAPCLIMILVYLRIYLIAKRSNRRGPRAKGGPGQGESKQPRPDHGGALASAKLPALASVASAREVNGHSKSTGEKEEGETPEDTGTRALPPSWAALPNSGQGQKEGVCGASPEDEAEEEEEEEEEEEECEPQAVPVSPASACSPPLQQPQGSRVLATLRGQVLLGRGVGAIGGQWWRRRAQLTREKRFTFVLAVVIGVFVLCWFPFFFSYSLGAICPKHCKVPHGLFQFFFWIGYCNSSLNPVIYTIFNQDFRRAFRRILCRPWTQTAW
Procedure, shortened: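 Readout: percent inhibition of specific [3H]Rauwolscine binding, measured by filtration and counting. Conditions: CHO-K1 cell-expressed receptor, 2.5 nM radioligand, 60 min, 25° C, Tris-HCl pH 7.4 buffer with MgCl2, EDTA, BSA. Non-specific binding: 10 μM Prazosin.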

[4] = compound at 0.1 μM, [3H]MK-912, repeat assays, each datapoint shown
[5] = compound at 0.1 μM, [3H]Prazosin, repeat assays, each datapoint shown
[6] = compound at 0.03 μM, [3H]Rauwolscine, repeat assays, each datapoint shown
[7] = read-out: Percentage inhibition of ligand binding, Adrenergic α2A (0.1 μM), compound at 0.1 μM, [3H]MK-912, repeat datapoints each shown
[8] = read-out: Percentage inhibition of ligand binding, Adrenergic α1B (0.1 μM), compound at 0.1 μM, [3H]Prazosin, repeat datapoints each shown
[9] = read-out: Percentage inhibition of ligand binding, Adrenergic α2B (0.03 μM), compound at 0.03 μM, [3H]Rauwolscine, repeat datapoints each shown
[10] = compound at 0.1 μM, [3H]MK-912, repeat datapoints each shown
[11] = compound at 0.03 μM, [3H]Rauwolscine, repeat datapoints each shown
[12] = compound at 0.1 μM, [3H]Prazosin, repeat datapoints each shown
[13] = compound at 0.1 μM, [3H]MK-912, repeat assays, each datapoint shown, read-out: Percentage inhibition of ligand binding, Adrenergic α2A

Structure (SMILES)	inhibition at 0.1 µM [1, 7] [%]	inhibition at 0.1 µM [2, 8] [%]	inhibition at 0.03 µM [3, 9] [%]	Percentage inhibition of ligand binding, Adrenergic α2A (0.1 μM) [1, 10] [%]	Percentage inhibition of ligand binding, Adrenergic α2B (0.03 μM) [3, 11]	further results
Cc1cnc2c(c1)c1c(n2CC(C)(O)c2cccnc2)CCN2CCCC12 (single isomer, unassigned) [26d]	–	–	–	–	–	Percentage inhibition of ligand binding, Adrenergic α2A [1, 4]: 0%; Percentage inhibition of ligand binding, Adrenergic α1B [2, 5]: −2%; Percentage inhibition of ligand binding, Adrenergic α2B [3, 6]: 6% and 11%
Cc1cnc2c(c1)c1c(n2CC(O)c2ccncc2)CCNC1 (centres unmarked) [compound 58, 2-(3-methyl-5,6,7,8-tetrahydro-1,6,9-triaza-fluoren-9-yl)-1-pyridin-4-yl-ethanol]	–	–	–	–	–	Percentage inhibition of ligand binding, Adrenergic α2A [1, 4]: −1%; Percentage inhibition of ligand binding, Adrenergic α1B [2, 5]: 21%; Percentage inhibition of ligand binding, Adrenergic α2B [3, 6]: 26%
Cc1ccc2c(c1)c1c(n2CC(N=[N+]=[N-])c2ccc(C(N)=O)nc2)CCN(C)C1 (centres unmarked) [V-22, 5-[1-azido-2-(2,8-dimethyl-1,2,3,4-tetrahydro-pyrido[4,3-b]indol-5-yl)-ethyl]-pyridine-2-carboxylic acid amide]	18	28	90	–	–	–
Cc1ccc2c(c1)c1c(n2CCc2ccc(C)nc2)CCN2CCCC12 (centres unmarked) [197a, 9-methyl-6-[2-(6-methyl-pyridin-3-yl)-ethyl]-2,3,4,5,6,10c-hexahydro-1H-3a, 6-diaza-cyclopenta[c]fluorene]	31	82	81	–	–	–
Cc1ccc2c(c1)c1c(n2CC(OCC(=O)O)c2ccncc2)CCN2CCCC12 (centres unmarked) [V-15, 2-(2-(10-methyl-2,3,5,6-tetrahydro-1H-indolizino[7,8-b]indol-7(11cH)-yl)-1-(pyridin-4-yl)ethoxy)acetic acid]	7	4	20	–	–	–
Cc1ccc2c(c1)c1c(n2CC(C)(O)c2ccc(C)nc2)CN(C)CC1 (single isomer, unassigned) [196a]	58	54.6	93	71	103%	Ki [1]: 16.8 nM; inhibition at 0.03 µM ([1]; read-out: Percentage inhibition of ligand binding, Adrenergic α2A (0.03 μM), compound at 0.03 μM, [3H]MK-912, repeat datapoints each shown): 37%; inhibition at 0.03 µM ([2]; read-out: Percentage inhibition of ligand binding, Adrenergic α1B (0.03 μM), compound at 0.03 μM, [3H]Prazosin, repeat datapoints each shown): 30%; Ki [3]: 1.83 nM
Cc1ccc2c(c1)c1c(n2CC(c2cnccn2)N(C)C)CCN2CCCC12 (centres unmarked) [II-7, dimethyl-[2-(9-methyl-1,2,3,4,5,10c-hexahydro-3a,6-diaza-cyclopenta[c]fluoren-6-yl)-1-pyrazin-2-yl-ethyl]-amine]	–	–	–	–	–	inhibition at 0.1 µM ([1]; 0.1 μM compound, read-out: Percentage inhibition of ligand binding, Adrenergic α2A): 52%; inhibition at 0.1 µM ([2]; 0.1 μM compound, read-out: Percentage inhibition of ligand binding, Adrenergic α1B): 95%; inhibition at 0.03 µM ([3]; 0.03 μM compound, read-out: Percentage inhibition of ligand binding, Adrenergic α2B): 100%
Cc1ccc2c(c1)c1c(n2CC(c2ccc(F)cc2)N(C)C)CCN(C)C1 (single isomer, unassigned) [II-14b, 2-(2,8-dimethyl-3,4-dihydro-1H-pyrido[4,3-b]indol-5(2H)-yl)-1-(4-fluorophenyl)-N,N-dimethylethanamine]	–	–	–	–	–	Percentage inhibition of ligand binding, Adrenergic α2A ([1]; 0.1 μM compound): 17%; Percentage inhibition of ligand binding, Adrenergic α1B ([2]; 0.1 μM compound): 8%; Percentage inhibition of ligand binding, Adrenergic α2B ([3]; 0.03 μM compound): 33%
CN1CCc2c(n(CC(C)(O)c3cccnc3)c3ccc(Cl)cc23)C1 (single isomer, unassigned) [28a]	–	–	–	–	–	inhibition at 0.1 µM [1, 13]: 28%; Percentage inhibition of ligand binding, Adrenergic α1B [2, 5]: 41%; Percentage inhibition of ligand binding, Adrenergic α2B [3, 6]: 96%
Cc1ccc2c(c1)c1c(n2CC(O)c2cccnc2)CCN(C)C1 (centres unmarked) [compound 62]	–	–	–	–	–	inhibition at 0.1 µM [1, 13]: 1%; inhibition at 0.1 µM ([2]; compound at 0.1 μM, [3H]Prazosin, repeat assays, each datapoint shown, read-out: Percentage inhibition of ligand binding, Adrenergic α1B): 16%; inhibition at 0.03 µM ([3]; compound at 0.03 μM, [3H]Rauwolscine, repeat assays, each datapoint shown, read-out: Percentage inhibition of ligand binding, Adrenergic α2B): 76%
CC(O)(Cn1c2c(c3cc(Cl)cnc31)C1CCCN1CC2)c1cccnc1 (single isomer, unassigned) [IV-210c]	–	–	–	1	10%	Percentage inhibition of ligand binding, Adrenergic α1B (0.1 μM) [2, 12]: −4%
COc1cccc2c3c(n(CC(O)c4ccncc4)c12)CCN(C)C3 (single isomer, unassigned) [44b, 2-(6-methoxy-2-methyl-3,4-dihydro-1H-pyrido[4,3-b]indol-5(2H)-yl)-1-(pyridin-4-yl)ethanol]	–	–	–	–	–	Percentage inhibition of ligand binding, Adrenergic α2A [1, 4]: 1%; Percentage inhibition of ligand binding, Adrenergic α1B [2, 5]: 18%; Percentage inhibition of ligand binding, Adrenergic α2B [3, 6]: 75%
Cc1cnc2c(c1)c1c(n2CC(N)c2ccc(C#N)cc2)CCNC1 (single isomer, unassigned) [160b]	–	–	–	5	41%	Percentage inhibition of ligand binding, Adrenergic α1B (0.1 μM) [2, 12]: 65%

More lines, main results first:

inhibition at 0.1 µM [1, 7] [%]	inhibition at 0.1 µM [2, 8] [%]	inhibition at 0.03 µM [3, 9] [%]	Percentage inhibition of ligand binding, Adrenergic α2A (0.1 μM) [1, 10] [%]	Percentage inhibition of ligand binding, Adrenergic α2B (0.03 μM) [3, 11]	Structure (SMILES)	further results
22	13	68	–	–	Cc1ccc2c(c1)c1c(n2CC(CCO)c2ccncc2)CCN(C)C1 (centres unmarked) [II-224, 4-(2,8-dimethyl-1,2,3,4-tetrahydro-pyrido[4,3-b]indol-5-yl)-3-pyridin-4-yl-butan-1-ol]	–
–	–	–	21	63%	Cc1ccc2c(c1)c1c(n2CC(C)(OC(=O)C(C)C)c2cccnc2)CCN(C)C1 (single isomer, unassigned) [146b]	Percentage inhibition of ligand binding, Adrenergic α1B (0.1 μM) [2, 12]: 11%
–	–	–	−12	52%	Cc1cnc2c(c1)c1c(n2CC(N)c2ccc(C#N)cc2)CCN(C)C1 (single isomer, unassigned) [159b]	Percentage inhibition of ligand binding, Adrenergic α1B (0.1 μM) [2, 12]: 53%
–	5	–	15	61% and 68%	CN1CCc2c(c3ccccc3n2CC(C)(O)c2cccnc2)C1 (single isomer, unassigned) [173a]	Ki [3]: 8.77 nM; inhibition at 0.1 µM ([3]; read-out: Percentage inhibition of ligand binding, Adrenergic α2B (0.1 μM), compound at 0.1 μM, [3H]Rauwolscine, repeat datapoints each shown): 82%
6	3	12	–	–	Cc1ccc2c(c1)c1c(n2CC(CC(N)=O)c2ccncc2)CCN(C)C1 (centres unmarked) [II-229, 4-(2,8-dimethyl-1,2,3,4-tetrahydro-pyrido[4,3-b]indol-5-yl)-3-pyridin-4-yl-butyramide]	–
